Source: patent publication US20260234160A1, “NEW SUBSTITUTED QUINOLINE COMPOUNDS FOR COMBATITNG PHYTOPATHOGENIC FUNGI” (BASF SE, priority 2023, published 2026)

What was measured:
Sclerotinia sclerotiorum = assay: Preventative fungicidal control of white mold on oilseed rape caused by Sclerotinia sclerotiorum (green house); assay type: in vivo; settings: 100 ppm, assessed after 14 days, untreated 100%
Method: The compound was dissolved in a mixture of acetone and/or dimethylsulfoxide and the wetting agent/emulsifier Wettol, which is based on ethoxylated alkylphenoles, in a ratio (volume) solvent-emulsifier of 99 to 1 to give a total volume of 5 ml. Subsequently, water was added to total volume of 100 ml.
This stock solution was then diluted with the described solvent-emulsifier-water mixture to the final concentration given in the table below.
Oilseed rapes were grown in pots to the 13 to 14 leaf stage. These plants were sprayed to runoff with previously described spray solution, containing the concentration of active ingredient or their mixture mentioned in the table below.
The plants could air-dry. The next day the applicated rape petals were fixed with 25 μl of 2.5% methylcellulose on leaf 1 and 2. 25 μl of a spore suspension of Sclerotinia sclerotiorum was pipetted on each fixed rape petal. After 14 days at 20° C. and a relative humidity of 60% the extent of fungal attack on the leaves was visually assessed as % diseased leaf area.

Botrytis cinerea = assay: Activity against the grey mold Botrytis cinerea in the microtiterplate test; assay type: cell-based; settings: 31 ppm, MTP, 405 nm, 7 days after inoculation
Method: The active compounds were formulated separately as a stock solution having a concentration of 10000 ppm in dimethyl sulfoxide.
The stock solutions were mixed according to the ratio, pipetted onto a micro titer plate (MTP) and diluted with water to the stated concentrations. A spore suspension of Botrytis cinerea in an aqueous biomalt or yeast-bactopeptone-sodium acetate solution was then added. The plates were placed in a water vapor-saturated chamber at a temperature of 18° C. Using an absorption photometer, the MTPs were measured at 405 nm 7 days after the inoculation.

Corynespora cassiicola = assay: Activity against Corynespora cassiicola in the microtiterplate test; assay type: cell-based; settings: 31 ppm, MTP
Method: The active compounds were formulated separately as a stock solution having a concentration of 10000 ppm in dimethyl sulfoxide. The stock solutions were mixed according to the ratio, pipetted onto a micro titer plate (MTP) and diluted with water to the stated concentrations. A spore suspension of the Corynespora cassiicola in an aqueous biomalt or yeast-bactopeptone-sodium acetate solution was then added.

Structure (SMILES)	growth of the pathogen (% diseased leaf area) (Sclerotinia sclerotiorum)	growth of the pathogen (Botrytis cinerea) [%]	growth of the pathogen (Corynespora cassiicola) [%]
C[C@@H]1N=C(c2cnc3c(F)cccc3c2)c2ccccc2OC1(C)C [Ex-1, (S)-5-(8-fluoroquinolin-3-yl)-2,2,3-trimethyl-2,3-dihydrobenzo[f][1,4]oxazepane]	less than 1%	0	
C[C@@H]1N=C(c2cnc3c(F)cccc3c2)c2cccc(F)c2OC1(C)C [Ex-3, (3S)-9-fluoro-5-(8-fluoro-3-quinolyl)-2,2,3-trimethyl-3H-1,4-benzoxazepine]		0	
C[C@@H]1N=C(c2cnc3ccccc3c2)c2cccc(F)c2OC1(C)C [Ex-4, (3S)-9-fluoro-2,2,3-trimethyl-5-(3-quinolyl)-3H-1,4-benzoxazepine]		0	1
